Test results as given in ChEMBL document CHEMBL5291721, “A preclinical secondary pharmacology resource illuminates target-adverse drug reaction associations of marketed drugs” (Nat Commun, 2023).

What was measured:
[1] = molecular target: Acetylcholinesterase (Homo sapiens, UniProt P22303); assay type: functional
[2] = molecular target: T1, Muscarinic acetylcholine receptor M2 (Homo sapiens, UniProt P08172)
T1 sequence (P08172 whole entry): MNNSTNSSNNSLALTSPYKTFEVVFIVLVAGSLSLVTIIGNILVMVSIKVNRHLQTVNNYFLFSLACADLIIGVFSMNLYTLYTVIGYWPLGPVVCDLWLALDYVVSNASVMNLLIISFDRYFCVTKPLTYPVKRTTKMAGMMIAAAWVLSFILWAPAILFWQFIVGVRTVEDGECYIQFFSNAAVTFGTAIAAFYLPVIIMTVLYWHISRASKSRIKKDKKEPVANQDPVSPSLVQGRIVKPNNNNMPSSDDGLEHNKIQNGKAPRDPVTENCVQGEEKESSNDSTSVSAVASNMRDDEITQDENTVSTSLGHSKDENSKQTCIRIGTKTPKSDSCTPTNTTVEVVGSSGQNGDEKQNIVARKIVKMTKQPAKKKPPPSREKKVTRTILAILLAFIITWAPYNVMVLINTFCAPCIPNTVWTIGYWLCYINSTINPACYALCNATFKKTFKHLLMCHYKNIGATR

[3] = molecular target: D(1A) dopamine receptor (Homo sapiens, UniProt P21728)
[4] = molecular target: D(3) dopamine receptor (Homo sapiens, UniProt P35462)
[5] = molecular target: Prothrombin (Homo sapiens, UniProt P00734); assay type: functional
[6] = molecular target: Histamine H3 receptor (Homo sapiens, UniProt Q9Y5N1)
[7] = molecular target: T2, 5-hydroxytryptamine receptor 1A (Homo sapiens, UniProt P08908)
T2 sequence (P08908 whole entry): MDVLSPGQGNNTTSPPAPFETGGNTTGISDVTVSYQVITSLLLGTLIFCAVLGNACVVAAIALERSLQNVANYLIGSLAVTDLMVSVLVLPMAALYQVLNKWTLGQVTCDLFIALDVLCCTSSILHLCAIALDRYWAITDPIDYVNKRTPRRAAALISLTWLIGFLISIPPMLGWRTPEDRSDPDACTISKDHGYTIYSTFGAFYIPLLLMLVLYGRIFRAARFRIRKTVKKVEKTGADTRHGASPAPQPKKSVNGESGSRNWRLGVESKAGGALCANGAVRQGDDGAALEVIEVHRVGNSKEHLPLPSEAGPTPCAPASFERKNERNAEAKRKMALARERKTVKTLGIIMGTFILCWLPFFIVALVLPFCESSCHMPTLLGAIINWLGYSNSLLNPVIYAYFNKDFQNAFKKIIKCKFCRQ

[8] = molecular target: 5-hydroxytryptamine receptor 2B (Homo sapiens, UniProt P41595); assay type: functional, cell-based
[9] = molecular target: Voltage-gated inwardly rectifying potassium channel KCNH2 (Homo sapiens, UniProt Q12809); assay type: functional; conditions: read-out: AC50
[10] = molecular target: T3, Amine oxidase [flavin-containing] A (Homo sapiens, UniProt P21397); assay type: functional
T3 sequence (P21397 whole entry): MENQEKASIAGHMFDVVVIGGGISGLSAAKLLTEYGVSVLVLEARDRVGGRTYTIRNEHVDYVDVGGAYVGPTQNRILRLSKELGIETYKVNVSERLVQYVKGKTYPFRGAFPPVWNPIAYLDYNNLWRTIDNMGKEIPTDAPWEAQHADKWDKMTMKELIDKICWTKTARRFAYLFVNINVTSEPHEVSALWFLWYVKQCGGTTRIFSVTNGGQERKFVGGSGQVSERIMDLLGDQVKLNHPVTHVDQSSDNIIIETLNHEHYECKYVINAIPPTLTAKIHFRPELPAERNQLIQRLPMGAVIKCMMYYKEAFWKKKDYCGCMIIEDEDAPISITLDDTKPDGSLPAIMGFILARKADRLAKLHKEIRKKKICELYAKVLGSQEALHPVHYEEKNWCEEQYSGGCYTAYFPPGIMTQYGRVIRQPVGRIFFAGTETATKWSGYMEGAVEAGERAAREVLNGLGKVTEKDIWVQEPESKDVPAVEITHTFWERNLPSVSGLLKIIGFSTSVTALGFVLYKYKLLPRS

[11] = molecular target: Mu-type opioid receptor (Homo sapiens, UniProt P35372)
[12] = molecular target: cGMP-inhibited 3',5'-cyclic phosphodiesterase 3A (Homo sapiens, UniProt Q14432); assay type: functional
[13] = molecular target: 3',5'-cyclic-AMP phosphodiesterase 4A (Homo sapiens, UniProt P27815); assay type: functional
[14] = molecular target: T4, Prostaglandin G/H synthase 1 (Homo sapiens, UniProt P23219); assay type: functional
[15] = molecular target: T4, Prostaglandin G/H synthase 1; assay type: functional; remark: listed apart in the source
[16] = molecular target: Sodium-dependent noradrenaline transporter (Homo sapiens, UniProt P23975)
[17] = molecular target: Sodium-dependent dopamine transporter (Homo sapiens, UniProt Q01959)
[18] = molecular target: T5, Thromboxane A2 receptor (Homo sapiens, UniProt P21731); assay type: functional, cell-based
T5 sequence (P21731 whole entry): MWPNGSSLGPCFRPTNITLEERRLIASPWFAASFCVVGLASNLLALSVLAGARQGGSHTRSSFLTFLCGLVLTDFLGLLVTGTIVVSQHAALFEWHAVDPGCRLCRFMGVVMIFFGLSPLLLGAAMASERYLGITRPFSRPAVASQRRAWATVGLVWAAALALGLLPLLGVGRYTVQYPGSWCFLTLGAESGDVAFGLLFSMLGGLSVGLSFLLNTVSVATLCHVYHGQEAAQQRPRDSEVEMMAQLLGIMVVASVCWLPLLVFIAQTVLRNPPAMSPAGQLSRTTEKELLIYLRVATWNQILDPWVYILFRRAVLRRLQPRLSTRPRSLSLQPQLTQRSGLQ

[19] = molecular target: T5, Thromboxane A2 receptor; assay type: functional, cell-based; remark: listed apart in the source
Note: assay procedure not described here.

Acetylcholinesterase, sequence (P22303 whole entry): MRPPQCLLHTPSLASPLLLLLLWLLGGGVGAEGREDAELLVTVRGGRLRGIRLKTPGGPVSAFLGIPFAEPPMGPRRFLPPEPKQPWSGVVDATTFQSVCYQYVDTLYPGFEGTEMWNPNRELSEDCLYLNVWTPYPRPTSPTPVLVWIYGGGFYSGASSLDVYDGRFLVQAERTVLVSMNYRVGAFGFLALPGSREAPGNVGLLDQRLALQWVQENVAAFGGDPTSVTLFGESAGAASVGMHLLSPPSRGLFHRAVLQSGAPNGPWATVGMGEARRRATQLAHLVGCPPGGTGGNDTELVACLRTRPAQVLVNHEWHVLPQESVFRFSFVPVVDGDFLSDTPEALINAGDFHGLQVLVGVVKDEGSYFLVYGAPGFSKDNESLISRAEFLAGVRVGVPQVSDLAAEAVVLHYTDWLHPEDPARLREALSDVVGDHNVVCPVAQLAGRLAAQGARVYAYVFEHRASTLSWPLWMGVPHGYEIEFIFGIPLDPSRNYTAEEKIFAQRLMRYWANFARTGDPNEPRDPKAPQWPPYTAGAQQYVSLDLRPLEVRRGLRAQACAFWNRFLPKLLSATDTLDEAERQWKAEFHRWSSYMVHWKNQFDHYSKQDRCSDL
Sodium-dependent dopamine transporter, sequence (Q01959 whole entry): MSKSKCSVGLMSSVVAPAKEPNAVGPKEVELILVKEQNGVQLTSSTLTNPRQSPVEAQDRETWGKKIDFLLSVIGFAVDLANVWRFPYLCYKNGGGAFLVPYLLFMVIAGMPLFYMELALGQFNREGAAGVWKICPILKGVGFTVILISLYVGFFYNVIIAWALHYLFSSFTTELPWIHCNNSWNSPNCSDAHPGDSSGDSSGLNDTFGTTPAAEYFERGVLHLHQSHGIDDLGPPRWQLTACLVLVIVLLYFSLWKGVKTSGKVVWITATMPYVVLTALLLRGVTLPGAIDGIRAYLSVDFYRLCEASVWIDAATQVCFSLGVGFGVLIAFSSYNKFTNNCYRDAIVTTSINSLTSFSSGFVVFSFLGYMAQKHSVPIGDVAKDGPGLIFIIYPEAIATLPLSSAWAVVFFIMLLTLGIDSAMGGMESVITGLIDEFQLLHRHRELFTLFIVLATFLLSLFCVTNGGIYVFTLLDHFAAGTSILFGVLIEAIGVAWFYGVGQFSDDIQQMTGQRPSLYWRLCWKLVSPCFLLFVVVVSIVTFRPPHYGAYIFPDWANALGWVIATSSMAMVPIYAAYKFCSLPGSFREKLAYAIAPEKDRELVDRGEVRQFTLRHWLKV
3',5'-cyclic-AMP phosphodiesterase 4A, sequence (P27815 whole entry): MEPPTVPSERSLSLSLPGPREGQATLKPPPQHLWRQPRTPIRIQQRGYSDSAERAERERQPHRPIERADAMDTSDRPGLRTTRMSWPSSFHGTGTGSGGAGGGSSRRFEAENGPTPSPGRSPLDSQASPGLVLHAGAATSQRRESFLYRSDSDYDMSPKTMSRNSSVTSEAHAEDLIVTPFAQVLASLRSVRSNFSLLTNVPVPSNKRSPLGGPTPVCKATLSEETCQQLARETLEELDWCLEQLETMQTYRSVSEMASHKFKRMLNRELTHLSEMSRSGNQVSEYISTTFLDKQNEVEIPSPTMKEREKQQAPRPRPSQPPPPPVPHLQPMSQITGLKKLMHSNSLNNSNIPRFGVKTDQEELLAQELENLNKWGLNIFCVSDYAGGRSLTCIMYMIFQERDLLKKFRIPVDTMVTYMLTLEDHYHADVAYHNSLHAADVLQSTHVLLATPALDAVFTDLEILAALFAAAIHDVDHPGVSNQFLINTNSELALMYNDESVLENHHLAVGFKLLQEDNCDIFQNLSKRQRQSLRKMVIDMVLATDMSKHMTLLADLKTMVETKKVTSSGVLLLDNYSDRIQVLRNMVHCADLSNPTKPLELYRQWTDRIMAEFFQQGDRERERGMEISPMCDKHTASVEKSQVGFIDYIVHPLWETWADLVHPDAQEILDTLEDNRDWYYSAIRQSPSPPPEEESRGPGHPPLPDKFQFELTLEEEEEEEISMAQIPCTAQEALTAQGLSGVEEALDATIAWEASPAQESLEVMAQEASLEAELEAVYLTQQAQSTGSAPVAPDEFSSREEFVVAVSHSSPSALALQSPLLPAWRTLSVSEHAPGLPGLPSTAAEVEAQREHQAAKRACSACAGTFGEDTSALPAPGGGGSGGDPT
5-hydroxytryptamine receptor 2B, sequence (P41595 whole entry): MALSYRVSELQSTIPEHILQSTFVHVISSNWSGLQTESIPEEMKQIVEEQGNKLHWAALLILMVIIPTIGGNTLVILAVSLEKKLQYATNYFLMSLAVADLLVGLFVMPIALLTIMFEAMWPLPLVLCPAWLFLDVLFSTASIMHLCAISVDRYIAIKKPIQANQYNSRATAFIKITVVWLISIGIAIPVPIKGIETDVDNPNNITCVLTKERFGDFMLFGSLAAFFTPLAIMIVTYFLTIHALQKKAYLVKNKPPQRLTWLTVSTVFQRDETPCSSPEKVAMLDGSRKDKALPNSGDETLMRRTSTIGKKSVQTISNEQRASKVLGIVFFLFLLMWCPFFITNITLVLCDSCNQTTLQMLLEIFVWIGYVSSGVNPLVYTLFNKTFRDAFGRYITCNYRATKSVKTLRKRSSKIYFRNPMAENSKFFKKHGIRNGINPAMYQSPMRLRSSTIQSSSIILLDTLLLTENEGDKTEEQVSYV
Histamine H3 receptor, sequence (Q9Y5N1 whole entry): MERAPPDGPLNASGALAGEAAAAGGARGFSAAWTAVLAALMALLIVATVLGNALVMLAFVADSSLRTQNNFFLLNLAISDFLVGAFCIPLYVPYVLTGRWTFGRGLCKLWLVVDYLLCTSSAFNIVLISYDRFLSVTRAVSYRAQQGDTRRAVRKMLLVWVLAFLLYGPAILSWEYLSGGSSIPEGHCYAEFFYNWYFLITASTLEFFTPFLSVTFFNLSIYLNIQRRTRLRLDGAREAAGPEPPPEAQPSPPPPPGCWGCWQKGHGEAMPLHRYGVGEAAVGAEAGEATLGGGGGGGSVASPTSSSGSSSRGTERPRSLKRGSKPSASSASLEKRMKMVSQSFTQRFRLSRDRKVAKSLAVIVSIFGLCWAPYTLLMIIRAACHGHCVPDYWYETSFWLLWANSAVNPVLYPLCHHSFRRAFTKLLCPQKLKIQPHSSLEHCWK
D(3) dopamine receptor, sequence (P35462 whole entry): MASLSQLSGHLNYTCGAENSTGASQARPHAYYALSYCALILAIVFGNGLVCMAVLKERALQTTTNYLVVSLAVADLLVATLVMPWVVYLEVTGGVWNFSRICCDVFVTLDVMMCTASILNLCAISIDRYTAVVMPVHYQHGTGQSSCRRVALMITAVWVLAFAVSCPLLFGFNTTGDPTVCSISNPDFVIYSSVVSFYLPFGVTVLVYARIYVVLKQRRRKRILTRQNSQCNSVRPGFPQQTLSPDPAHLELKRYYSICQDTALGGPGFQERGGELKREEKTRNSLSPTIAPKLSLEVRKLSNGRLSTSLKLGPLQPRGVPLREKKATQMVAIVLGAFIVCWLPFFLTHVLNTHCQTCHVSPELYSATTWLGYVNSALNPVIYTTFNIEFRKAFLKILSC
T4 sequence (P23219 whole entry): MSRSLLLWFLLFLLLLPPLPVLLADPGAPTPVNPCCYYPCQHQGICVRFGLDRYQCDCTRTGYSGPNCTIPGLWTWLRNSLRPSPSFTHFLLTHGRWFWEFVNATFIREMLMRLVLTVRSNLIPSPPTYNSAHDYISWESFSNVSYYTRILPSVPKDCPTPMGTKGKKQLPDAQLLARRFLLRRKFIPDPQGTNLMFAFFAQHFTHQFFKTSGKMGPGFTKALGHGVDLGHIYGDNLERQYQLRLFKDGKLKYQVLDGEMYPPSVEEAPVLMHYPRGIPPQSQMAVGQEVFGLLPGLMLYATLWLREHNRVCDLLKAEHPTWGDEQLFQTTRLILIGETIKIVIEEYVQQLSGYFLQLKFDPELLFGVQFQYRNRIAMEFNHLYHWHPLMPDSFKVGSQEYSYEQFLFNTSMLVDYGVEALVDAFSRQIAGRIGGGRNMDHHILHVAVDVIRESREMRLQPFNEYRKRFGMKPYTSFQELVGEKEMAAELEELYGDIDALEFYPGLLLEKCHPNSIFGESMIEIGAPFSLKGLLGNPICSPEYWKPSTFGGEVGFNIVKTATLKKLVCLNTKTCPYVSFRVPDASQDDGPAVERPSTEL
D(1A) dopamine receptor, sequence (P21728 whole entry): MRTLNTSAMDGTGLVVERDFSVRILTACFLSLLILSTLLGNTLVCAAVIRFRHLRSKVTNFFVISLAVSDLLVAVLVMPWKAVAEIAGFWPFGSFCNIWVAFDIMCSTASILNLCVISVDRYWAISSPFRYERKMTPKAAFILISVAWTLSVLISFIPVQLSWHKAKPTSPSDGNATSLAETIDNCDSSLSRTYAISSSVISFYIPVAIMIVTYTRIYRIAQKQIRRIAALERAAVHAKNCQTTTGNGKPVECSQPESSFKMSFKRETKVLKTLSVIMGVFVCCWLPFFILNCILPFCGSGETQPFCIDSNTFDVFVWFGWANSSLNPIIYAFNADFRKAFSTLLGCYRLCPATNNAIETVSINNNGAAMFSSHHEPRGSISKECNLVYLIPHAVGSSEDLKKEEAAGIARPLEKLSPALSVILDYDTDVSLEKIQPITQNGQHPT
Mu-type opioid receptor, sequence (P35372 whole entry): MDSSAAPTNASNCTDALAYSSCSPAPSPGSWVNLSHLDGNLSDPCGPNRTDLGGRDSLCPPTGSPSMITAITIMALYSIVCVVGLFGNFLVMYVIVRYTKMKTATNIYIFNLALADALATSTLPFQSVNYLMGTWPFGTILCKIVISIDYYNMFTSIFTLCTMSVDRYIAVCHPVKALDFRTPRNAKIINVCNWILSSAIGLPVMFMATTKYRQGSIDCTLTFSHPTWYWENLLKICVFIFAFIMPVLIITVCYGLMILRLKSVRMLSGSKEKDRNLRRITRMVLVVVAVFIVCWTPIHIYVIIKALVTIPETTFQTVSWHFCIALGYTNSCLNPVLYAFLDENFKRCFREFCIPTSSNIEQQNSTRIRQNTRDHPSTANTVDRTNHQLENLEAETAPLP

Structure (SMILES) | AC50 [1] [µM] | AC50 [2] [µM] | AC50 [3] [µM] | AC50 [4] [µM] | AC50 [5] [µM] | AC50 [6] [µM] | AC50 [7] [µM] | AC50 [8] [µM] | AC50 [9] [µM] | AC50 [10] [µM] | AC50 [11] [µM] | AC50 [12] [µM] | AC50 [13] [µM] | AC50 [14] [µM] | AC50 [15] [µM] | AC50 [16] [µM] | AC50 [17] [µM] | AC50 [18] [µM] | AC50 [19] [µM]
O=C(O)CCCc1ccc(N(CCCl)CCCl)cc1 [CHLORAMBUCIL] | > 30 | > 30 | > 30 | > 30 | > 30 | > 30 | > 30 | > 30 | > 30 | > 30 | > 30 | > 30 | > 30 | > 30 | > 30 | > 30 | > 30 | > 30 | > 30
O=S(=O)(O)CCS [2-MERCAPTOETHANESULFONIC ACID] | > 10 | > 30 | > 30 | > 30 | > 30 | > 30 | > 30 | > 30 | > 30 | > 30 | > 30 | > 30 | 9 | 0.486 | 0.78 | > 30 | > 30 | > 30 | > 30
CNC[C@H](O)c1cccc(O)c1 [PHENYLEPHRINE] | > 30 | > 30 | 18.1 | 4.68 | > 30 | > 30 | 1.31 | > 30 | > 30 | > 30 | > 30 | > 30 | > 30 | > 30 | > 30 | > 30 | 29.4 | > 30 | > 30
CCCCCCCCCCCCCCCC(=O)OC/C=C(C)/C=C/C=C(C)/C=C/C1=C(C)CCCC1(C)C [VITAMIN A PALMITATE] | > 30 | > 30 | > 30 | > 30 | > 30 | > 30 | > 30 | > 30 | > 30 | > 30 | > 30 | > 30 | > 30 | > 30 | > 30 | > 30 | > 30 | > 30 | > 30
C#Cc1cccc(Nc2ncnc3cc(OCCOC)c(OCCOC)cc23)c1 [ERLOTINIB] | > 30 | 13.2 | > 10 | > 30 | > 30 | > 30 | > 30 | > 30 | > 30 | > 30 | 3.82 | > 30 | > 30 | 0.0388 | > 30 | > 30 | > 30 | > 30 | > 30
CN(C)CCCN1C(=O)c2cc([N+](=O)[O-])ccc2Oc2ccccc21 | > 30 | 20.6 | 26 | 15 | > 30 | > 30 | 4.17 | > 30 | > 30 | > 30 | > 30 | > 30 | > 30 | 29.6 | > 30 | > 30 | > 30 | > 30 | > 30
C[C@]12CC[C@@H]3c4ccc(O)cc4CC[C@H]3[C@@H]1CC[C@@H]2OC(=O)CCC1CCCC1 [ESTRADIOL CYPIONATE] | > 30 | > 30 | > 30 | > 30 | > 30 | > 30 | > 30 | > 30 | > 30 | > 30 | > 30 | 12.5 | 17.6 | 4.37 | > 30 | > 30 | > 30 | > 30 | > 30
CC(=O)/N=c1/sc(S(N)(=O)=O)nn1C [METHAZOLAMIDE] | > 30 | > 30 | > 30 | > 30 | > 30 | > 30 | > 30 | > 30 | > 30 | > 30 | > 30 | > 30 | > 30 | > 30 | > 30 | > 30 | > 30 | > 30 | > 30
CCOc1cc(N)c(Cl)cc1C(=O)NCC1CN(Cc2ccc(F)cc2)CCO1 (centres undefined) [MOSAPRIDE] | > 30 | > 30 | > 30 | 6.86 | > 30 | > 30 | 5.18 | > 30 | > 30 | > 30 | > 30 | > 30 | > 30 | > 30 | > 30 | > 30 | > 30 | > 30 | > 30
CCOc1ccc2ccccc2c1C(=O)N[C@@H]1C(=O)N2[C@@H]1SC(C)(C)[C@@H]2C(=O)O [NAFCILLIN] | > 30 | > 30 | > 30 | > 30 | > 30 | > 30 | > 30 | > 30 | > 30 | > 30 | > 30 | > 30 | > 30 | > 30 | > 30 | > 30 | > 30 | > 30 | > 30
CCCCNc1ccc(C(=O)OCCN(C)C)cc1 [TETRACAINE] | 8.1 | > 30 | > 30 | 18.5 | > 30 | 24.2 | > 30 | > 30 | 25.9 | 1.41 | > 30 | > 30 | > 30 | > 30 | > 30 | > 30 | 21.9 | > 30 | > 30
